Experimental findings from publication PMC7758399, “Phosphoglucoisomerase Is an Important Regulatory Enzyme in Partitioning Carbon out of the Calvin-Benson Cycle” (Frontiers in Plant Science, 2020) are described below.

Read-outs that look alike come from different tables or passages of the source.

Common to all, as to format: biochemical
Test [1] has as its target T1, plastidic AtPGI (PGI1) (Arabidopsis thaliana, UniProt Q8H103).
T1 construct: N-terminal His-tag, plastid targeting peptide removed, pET11a, E. coli BL21, Ni-NTA purified
T1 sequence (Q8H103 49-613): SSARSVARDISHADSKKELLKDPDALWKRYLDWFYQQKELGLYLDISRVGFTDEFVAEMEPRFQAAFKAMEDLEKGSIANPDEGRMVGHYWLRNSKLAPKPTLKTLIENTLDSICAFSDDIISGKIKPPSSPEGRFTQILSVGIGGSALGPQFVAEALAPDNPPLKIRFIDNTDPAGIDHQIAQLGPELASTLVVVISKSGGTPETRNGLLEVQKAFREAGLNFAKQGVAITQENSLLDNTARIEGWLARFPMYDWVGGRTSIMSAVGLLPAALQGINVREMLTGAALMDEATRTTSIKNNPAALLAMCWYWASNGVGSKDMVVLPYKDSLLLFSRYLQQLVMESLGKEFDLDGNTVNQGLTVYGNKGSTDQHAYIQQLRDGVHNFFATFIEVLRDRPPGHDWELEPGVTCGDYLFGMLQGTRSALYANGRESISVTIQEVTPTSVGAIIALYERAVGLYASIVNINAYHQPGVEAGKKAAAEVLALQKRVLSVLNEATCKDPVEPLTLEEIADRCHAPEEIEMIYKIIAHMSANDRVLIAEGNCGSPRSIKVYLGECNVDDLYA
In words: phosphofructokinase-coupled LC-MS/MS assay of FBP, Hill function fit. Conditions: G6P to F6P direction; 50 mM Tris pH 7.8, 2.5 mM MgCl2, 1 mM ATP, 5 mM DTT; table and text ratio disagree, table columns possibly interchanged; read-out: G6P F6P / Plastidic PGI. The text has this: phosphofructokinase-coupled LC-MS/MS assay of FBP, Hill function fit on plastidic AtPGI (PGI1)

The target of test [2] is T2, cytosolic AtPGI (PGI2) (Arabidopsis thaliana, UniProt P34795).
T2 construct: gene PGIC; N-terminal His-tag, pET11a, E. coli BL21, Ni-NTA purified
T2 sequence (P34795 1-560): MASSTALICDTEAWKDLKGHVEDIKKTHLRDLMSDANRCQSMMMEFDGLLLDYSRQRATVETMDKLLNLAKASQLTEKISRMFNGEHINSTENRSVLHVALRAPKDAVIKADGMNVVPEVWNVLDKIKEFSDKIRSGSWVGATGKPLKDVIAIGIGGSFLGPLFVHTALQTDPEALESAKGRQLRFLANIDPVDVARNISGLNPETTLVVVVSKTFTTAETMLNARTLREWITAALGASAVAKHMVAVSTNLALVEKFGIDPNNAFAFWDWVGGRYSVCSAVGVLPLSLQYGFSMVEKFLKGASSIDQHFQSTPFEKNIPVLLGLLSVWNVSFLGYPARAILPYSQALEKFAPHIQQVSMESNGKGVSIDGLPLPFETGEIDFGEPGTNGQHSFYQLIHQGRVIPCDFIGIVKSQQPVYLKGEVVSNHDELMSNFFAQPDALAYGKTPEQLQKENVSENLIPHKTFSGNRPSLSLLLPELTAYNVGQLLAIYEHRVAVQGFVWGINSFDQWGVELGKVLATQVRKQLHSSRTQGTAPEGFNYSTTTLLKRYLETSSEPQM
The test is described as above. Conditions: G6P to F6P direction; 50 mM Tris pH 7.8, 2.5 mM MgCl2, 1 mM ATP, 5 mM DTT; read-out: G6P F6P / Cytosolic PGI. From the text:
phosphofructokinase-coupled LC-MS/MS assay of FBP, Hill function fit on cytosolic AtPGI (PGI2)

In test [3] the target is T2, cytosolic AtPGI (PGI2). Description: G6PDH-coupled spectrophotometric assay, non-linear least squares fit. Conditions: F6P to G6P direction, F6P 0-0.98 mM, 50 mM bicine pH 7.8, 4.8 mM DTT, 0.6 mM NADP+, read-out: F6P G6P / Cytosolic PGI. The text has this:
G6PDH-coupled spectrophotometric assay, non-linear least squares fit on cytosolic AtPGI (PGI2)

The target in test [4] is T1, plastidic AtPGI (PGI1). Described as above. The settings on record: F6P to G6P direction, F6P 0-0.98 mM, 50 mM bicine pH 7.8, 4.8 mM DTT, 0.6 mM NADP+, read-out: F6P G6P / Plastidic PGI. The text has this: G6PDH-coupled spectrophotometric assay, non-linear least squares fit on plastidic AtPGI (PGI1)
The target in test [5] is T2, cytosolic AtPGI (PGI2). Description: G6PDH-coupled spectrophotometric assay, Hill function fit. Conditions: F6P to G6P direction; 50 mM bicine pH 7.8, 4.8 mM DTT, 0.6 mM NADP+; table and text disagree, table columns possibly interchanged; read-out: F6P G6P / Cytosolic PGI. From the text:
G6PDH-coupled spectrophotometric assay, Hill function fit on cytosolic AtPGI (PGI2)

The target of test [6] is T1, plastidic AtPGI (PGI1). Described as above. The settings on record: F6P to G6P direction; 50 mM bicine pH 7.8, 4.8 mM DTT, 0.6 mM NADP+; read-out: F6P G6P / Plastidic PGI. From the text: G6PDH-coupled spectrophotometric assay, Hill function fit on plastidic AtPGI (PGI1)
A further test deals with T3, plastidic SoPGI (Spinacia oleracea, UniProt O82058).
T3 construct: gene GPIP; native, lysed Percoll-isolated chloroplasts from market spinach leaves, light or dark treated
T3 sequence (O82058 51-618): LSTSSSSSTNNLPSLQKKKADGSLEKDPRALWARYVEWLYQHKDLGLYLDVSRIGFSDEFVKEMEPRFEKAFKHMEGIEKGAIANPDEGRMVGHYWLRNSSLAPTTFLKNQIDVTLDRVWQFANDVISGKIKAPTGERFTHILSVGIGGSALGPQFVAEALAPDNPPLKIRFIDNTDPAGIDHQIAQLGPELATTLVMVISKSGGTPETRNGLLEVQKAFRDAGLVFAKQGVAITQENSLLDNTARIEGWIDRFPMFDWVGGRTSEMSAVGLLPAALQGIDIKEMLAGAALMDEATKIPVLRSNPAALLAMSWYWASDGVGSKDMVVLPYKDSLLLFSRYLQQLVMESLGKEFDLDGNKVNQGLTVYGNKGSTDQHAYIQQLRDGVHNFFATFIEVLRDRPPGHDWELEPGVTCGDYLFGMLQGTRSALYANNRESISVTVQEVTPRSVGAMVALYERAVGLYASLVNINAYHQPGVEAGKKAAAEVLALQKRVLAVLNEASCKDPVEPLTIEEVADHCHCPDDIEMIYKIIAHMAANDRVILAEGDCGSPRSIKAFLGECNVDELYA
Description: PGI assay on lysed isolated chloroplasts. Conditions: F6P to G6P direction; light-treated leaves (dark-treated also measured).

[7] abbreviates: competitive with F6P except above 1.0 mM.

For the compound `O=P(O)(O)OC[C@H]1OC(O)[C@H](O)[C@@H](O)[C@@H]1O` (stereo partly drawn) [G6P, glucose 6-phosphate], the values for the Km at plastidic AtPGI (PGI1) [1] and on cytosolic AtPGI (PGI2) [2] were 164 ± 43 µM and 158 ± 85 µM, respectively.
As for `O=C[C@H](O)[C@H](O)COP(=O)(O)O` [E4P, erythrose 4-phosphate], the Ki at cytosolic AtPGI (PGI2) [3] amounted to 1.5 µM; on plastidic AtPGI (PGI1) [4] it was 2.3 µM.
Take `O=P(O)(O)OC[C@H]1OC(O)(CO)[C@@H](O)[C@@H]1O` (stereo partly drawn) [F6P, fructose 6-phosphate]: the values for the Km on cytosolic AtPGI (PGI2) [5], at plastidic AtPGI (PGI1) [6] and on plastidic SoPGI were 203 ± 12 µM, 73 ± 80 µM and “The Km of SoPGI for F6P did not change in the light or dark”, respectively.
Consider `O=C(O)[C@H](O)[C@@H](O)[C@H](O)[C@H](O)COP(=O)(O)O` [6PG, 6-phosphogluconate], for which the Ki at cytosolic AtPGI (PGI2) [3] (setting [7]) was found to be 106 µM; at plastidic AtPGI (PGI1) [4] (setting [7]), 31 µM.
